3 compounds from US20090176817A1, “Method of Treatment of Diarrhea-Predominant Irritable Bowel Syndrome in a Subject” (priority 2005, published 2009) can be followed below.

Molecules are shown by their SMILES. Like-named read-outs stand apart in the source and are kept apart here.

The nature of data set [1]: Study S.241.1.104: Ortho Tri-Cyclen pharmacokinetics with cilansetron 2 mg TID. The note with it: for Cmin / Cmax / AUC / half-life: arith. mean; for AUC: read-out: AUC(0-τ); for half-life: read-out: T½ (converted). Format: in vivo, human. The source says: The effects of concomitant administration of cilansetron and a commonly used oral contraceptive, Ortho Tri-Cyclen (ORC), on the pharmacokinetics and pharmacodynamics of ORC and the pharmacokinetics of cilansetron has been evaluated in a randomized, double-blind, placebo-controlled, multiple-dose, 2-period, crossover study in 20 healthy, female subjects, aged 19 to 42 years. Subjects received the following two treatments during each of two 28-day study periods (2 ORC cycles) in a randomized, crossover fashion: Treatment B (reference treatment)−ORC on Days 1-28 (standard ORC cycle)+placebo TID on Days 14-20 and a single dose of placebo on Day 21; Treatment A (test treatment)−ORC on Days 1-28 (standard ORC cycle)+cilansetron 2 mg TID on Days 14-20 and a single dose of cilansetron 2 mg on Day 21. […] For evaluation of the effect of concomitant cilansetron on the pharamacodynamics of ORC, blood samples were collected prior to morning dosing on Days 18, 19, 20, 26, 27, and 28 for measurement of serum progesterone (PG), luteinizing hormone (LH), and follicle stimulating hormone (FSH) concentrations, and untransformed data were compared statistically between treatments.

For data set [2], the system named is CYP3A4 (formation of 4-hydroxy metabolites of cilansetron). As to the kind of experiment: in vitro. The note with it: human, human hepatic microsomes, probe cilansetron (100 μM), formation of the 4-hydroxy metabolites.
Data set [3] relates to CYP3A4 (cilansetron metabolism). As to the kind of experiment: in vitro. The note with it: human, human hepatic microsomes, probe cilansetron (100 μM), overall metabolism.
Data set [4] deals with cilansetron metabolism (ketoconazole 25 μM used as general inhibitor). Put plainly: in vitro. The note with it: human, human hepatic microsomes, probe cilansetron (100 μM), overall metabolism.
The subject of data set [5] is patients with malignant tumors. As to the kind of experiment: Study K.241.5017: cisplatin-induced nausea and vomiting. Format: in vivo, human. The note with it: IV 8 mg TID. On the procedure: (§1) The effect of cilansetron on nausea and vomiting has been studied in 2 clinical studies in cancer patients. Both studies were randomized, singleblind, positive-controlled, parallel-group, pilot studies in male and female patients with malignant tumors, to investigate the effect of cilansetron on cytostatic-induced nausea and vomiting. In both studies, patients were on their first cycle of chemotherapy and were being treated with cisplatin (275 mg/m2 as a single dose in Study S.24 1.2.10 1 and […] for 5 days in Study K.24 1 S O 17). Patients in Study S.24 1.2.10 1 were aged 40-74 years (ITT population=16) and patients in Study K.24 1 S O 17 were aged 39-74 years (ITT population=19). In both studies, patients were randomized to receive either […] or IV ondansetron 8 mg TID for 1 day (Study S.241.2.101) or 5 days (Study K.2415017), corresponding to the day(s) of their cisplatin administration. If nausea and vomiting were completely controlled on a treatment day, the second and/or third doses of cilansetron or ondansetron could be omitted on that day. The primary efficacy parameter in both studies was the combination of the occurrence of vomiting and the severity of nausea, with a responder being defined as a patient with no vomiting and not more than mild nausea during the treatment day(s). […]

In data set [6] the test system is patients with malignant tumors. Put plainly: Study S.241.2.101: cisplatin-induced nausea and vomiting. Format: in vivo, human. The note with it: IV 8 mg TID. Here is the method:
as §1

Setting [7] is: female, human, plasma, oral, ORC + Cilansetron 2 mg TID, Day 21.
Where [8] appears, read: female, human, plasma, oral, ORC + Placebo, Day 21.

`C#C[C@]1(O)CC[C@H]2[C@@H]3CCc4cc(O)ccc4[C@H]3CC[C@@]21C` [EE, ethinyl estradiol]: the Cmin in data set [1] (ORC + Cilansetron 2 mg TID, Day 21) amounted to 0.022 ng/mL. Further, the Cmin in data set [1] (ORC + Placebo, Day 21) was 0.024 ng/mL. Moreover, in data set [1] (setting [7]), the Cmax was found to be 0.144 ng/mL, the AUC was 1.21 ng·h/mL and the half-life was 20.9 h. In addition, in data set [1] (female, human, plasma, oral, ORC + Cilansetron 2 mg TID, Day 21, median), the Tmax is 1.25 h. For the same compound, in data set [1] (setting [8]), the Cmax is 0.156 ng/mL, the AUC is 1.32 ng·h/mL and the half-life is 21.2 h. In data set [1] (in vivo), the “Mean AUC(0-τ) decrease with concomitant cilansetron” value is 10% and the “Mean Cmax decrease with concomitant cilansetron” value stood at 8%.
In the case of `CC(=O)N1CCN(c2ccc(OCC3COC(Cn4ccnc4)(c4ccc(Cl)cc4Cl)O3)cc2)CC1` (stereo not shown) [ketoconazole], the inhibition at 1 μM was 47% in data set [2] and ~70% in data set [3]. Further, the inhibition at 25 μM in data set [4] was determined as 93%.
With `Cc1nccn1CC1CCc2c(c3ccccc3n2C)C1=O` (stereo not shown) [ondansetron, reference compound], the figures for the Response rate in data set [5] and in data set [6] were 60.0% and 25.0%, respectively.
